Counter-ions that a name gives are not always drawn. Like-named read-outs stand apart in the source and are kept apart here.
Experiments:
[1] = tested on: HIVIIIb in CCRM-CEM cells; experiment: Anti-viral potency in CCRM-CEM cells acutely infected with HIVIIIb, extracellular p24 antigen readout (method of Meek et al.); format: cell-based, HIV-1
Procedure: Compounds of formula I were tested for their antiviral potency in several virological assays.
The effect of the compounds on inhibiting the replication of the virus was measured by determining the HIV extracellular p24 antigen concentration using a commercial enzyme immunoassay (obtained from Coulter Corporation, Hialeah, Fla.).
In Table VIII, the following classifications have been employed: • A: inhibits HIV replication at concentration of 100 nM or less. • B: inhibits HIV replication at concentration of between 101 and 1,000 nM. • C: inhibits HIV replication at a concentration of between 1,001 and 10,000 nM. • D: inhibits HIV replication at a concentration of between 10,001 and 40,000 nM. • ND: not tested.

HIV-1 protease = HIV-1 protease (Human immunodeficiency virus type 1 group M subtype B, UniProt P04585); experiment: Inhibition constants against HIV-1 protease (method of Pennington et al.); format: biochemical
Excerpt: We measured the inhibition constants of the compounds listed in Table VII against HIV-1 protease using the above-cited method of Pennington et al.

[2] = CCRM-CEM cells, HIV replication, read-out: IC90 Range
[3] = HIV-1 protease, read-out: Ki value
[4] = Human immunodeficiency virus 1, read-out: IC90 Range
[5] = Human immunodeficiency virus 1, CCRM-CEM cells, HIV replication, read-out: IC90 Range

| SMILES | Ki (HIV-1 protease; [3]) | other results |
| --- | --- | --- |
| CC(C)CN(CC(O)[C@H](Cc1ccccc1)NC(=O)[C@H](CC(N)=O)NC(=O)c1ccc2ccccc2n1)S(=O)(=O)c1ccc(-c2ccccn2)s1 (stereo partly drawn) [Compound 12, (S)-N-1-(1-(S)-Benzyl-2-(syn)-hydroxyl-3-(isobutyl-(5-pyridin-2-yl-thiophene-2-sulfonyl)-amino)-propyl)-2-((quinoline-2-carbonyl)-amino)-succinamide] | 0.1 nM | IC90 [1, 2]: < 100 nM |
| CC(=O)Nc1ccc(S(=O)(=O)N(CC(C)C)CC(O)[C@H](Cc2ccccc2)NC(=O)C(CC(N)=O)C(=O)OCc2ccncc2)cc1 (stereo partly drawn) [Compound 23, N-1-(3-((4-Acetylamino-benzenesulfonyl)-isobutyl-amino)-(1S,2 syn)-1-benzyl-2-hydroxy-propyl)-2-(pyridin-4-yl-methoxycarbonyl)-succinamide] | 1.5 nM | IC90 [1, 2]: 101 to 1000 nM |
| CC(C)CN(C[C@@H](O)[C@H](Cc1ccccc1)NC(=O)C(CC(N)=O)C(=O)OCc1ccccn1)S(=O)(=O)c1ccc(F)cc1 (stereo partly drawn) [Compound 26, N-1-(3-((4-Fluoro-benzenesulfonyl)-isobutyl-amino)-(1S,2 syn)-1-benzyl-2-hydroxy-propyl)-2-(pyridin-2-yl-methoxycarbonyl)-succinamide] | 0.1 nM | IC90 [1, 2]: 101 to 1000 nM |
| CC(C)CN(C[C@@H](O)[C@H](Cc1ccccc1)NC(=O)OC(C)(C)C)S(=O)(=O)c1ccccc1F [Compound 47] | 4 nM | IC90 [1, 4]: 1000 to 10000 nM |
| CC(C)CN(CC(O)[C@H](Cc1ccccc1)NC(=O)O[C@@H]1CCOC1)S(=O)(=O)c1ccc(F)cc1 (stereo partly drawn) [Compound 52, 4-Fluoro-N-((2 syn,3S)-2-hydroxy-4-phenyl-3-((R)-tetrahydrofuran-3-yloxycarbonylamino)-butyl)-N-isobutyl-benzenesulfonamide and 4-Fluoro-N-((2 syn,3S)-2-hydroxy-4-phenyl-3-((R)-tetrahydrofuran-3-yloxycarbonylamino)-butyl)-N-isobutyl-benzenesulfonamide] | 0.4 nM | IC90 [1, 2]: 101 to 1000 nM |
| CC(C)CN(CC(O)C(Cc1ccccc1)NC(=O)OCC1CCOC1)S(=O)(=O)c1ccc(Cl)c(Cl)c1 (stereo not shown) [Compound 85] | 4 nM | IC90 [1, 4]: 1000 to 10000 nM |
| CC(=O)Nc1ccc(S(=O)(=O)N(CC(C)C)CC(O)C(Cc2ccccc2)NC(=O)OC2CCOC2)cc1 [Compound 86, N-(4-(((2 syn,3S)-2-Hydroxy-4-phenyl-3-((R)-tetrahydrofuran-3-yloxycarbonylamino)-butyl)-isobutyl-sulfamoyl-phenyl)-acetamide and N-(4-(((2 syn,3S)-2-Hydroxy-4-phenyl-3-((S)-tetrahydrofuran-3-yloxycarbonylamino)-butyl)-isobutyl-sulfamoyl)-phenyl)-acetamide] | 5 nM | IC90 [1, 4]: 101 to 1000 nM |
| CC(C)CN(CC(O)[C@H](Cc1ccccc1)NC(=O)O[C@H]1CCOC1)S(=O)(=O)c1cccnc1 (stereo partly drawn) [Compound 144, Pyridine-3-sulfonic acid ((2 syn,3S)-2-hydroxy-4-phenyl-3-((S)-tetrahydrofuran-3-yloxycarbonylamino)-butyl)-isobutyl-amide, trifluoroacetic acid salt] | 8 nM | IC90 [1, 2]: 101 to 1000 nM |
| CC(=O)N1CCc2ccc(S(=O)(=O)N(CC3CCCC3)CC(O)[C@H](Cc3ccccc3)NC(=O)O[C@H]3CCOC3)cc21 (stereo partly drawn) [Compound 157, 1-Acetyl-2,3-dihydro-1H-indole-6-sulfonic acid cyclopentylmethyl-((2 syn, 3S)-2-hydroxy-4-phenyl-3-((S)-tetrahydrofuran-3-yloxycarbonylamino)-butyl)-amide] | 0.7 nM | IC90 [1, 2]: 101 to 1000 nM |
| CC(C)CN(C[C@@H](O)[C@H](Cc1ccccc1)NC(=O)O[C@H]1CCOC1)S(=O)(=O)c1ccc(N)cc1 [Compound 168, 4-Amino-N-((2 syn,3S)-2-Hydroxy-4-phenyl-3-((S)-tetrahydrofuran-3-yloxycarbonylamino)-butyl)-N-isobutyl-benzenesulfonamide] | – | IC90 [1, 5]: < 100 nM |
| CCC(C)C(NC(=O)OCc1ccccc1)C(=O)NC(Cc1ccccc1)C(O)CN(CC(C)C)S(=O)(=O)c1ccc(F)c(NC(C)=O)c1 [Compound 187, Benzyloxycarbonyl-(L)-isoleucine-N-(5-((3-amino-(2 syn,3S)-2-hydroxy-4-phenyl-butyl)-isobutyl-sulfamoyl)-2-fluoro-phenyl)-acetamide] | 0.3 nM | IC90 [1, 4]: 101 to 1000 nM |
| CCC(C)C(NC(=O)c1cnc2ccccc2n1)C(=O)NC(Cc1ccccc1)C(O)CN(CC(C)C)S(=O)(=O)c1ccc(F)c(NC(C)=O)c1 (stereo not shown) [Compound 188] | 11.5 nM | IC90 [1, 4]: 1000 to 10000 nM |
| CC(C)CN(C[C@@H](O)[C@H](Cc1ccccc1)NC(=O)O[C@H]1CCOC1)S(=O)(=O)c1ccc(O)c(N)c1 [Compound 1004] | 0.2 nM | IC90 [1, 4]: < 100 nM |
| C=C(C)CN(C[C@@H](O)[C@H](Cc1ccccc1)NC(=O)O[C@H]1CCOC1)S(=O)(=O)c1ccc(OC)cc1 [Compound 1006] | 8 nM | – |
| COc1ccc(S(=O)(=O)N(CC2CCCO2)CC(O)C(Cc2ccccc2)NC(=O)OC2CCOC2)cc1 (stereo not shown) [Compound 1007] | 42 nM | – |
| COc1ccc(S(=O)(=O)N(C[C@@H](O)[C@H](Cc2ccccc2)NC(=O)O[C@H]2CCOC2)CC(C)(C)CO)cc1 [Compound 1009] | 20 nM | – |
| COc1ccc(S(=O)(=O)N(C[C@@H](O)[C@H](Cc2ccccc2)NC(=O)O[C@H]2CCOC2)CC(C)(C)O)cc1 [Compound 1010] | 20 nM | – |
| COc1ccc(S(=O)(=O)N(C[C@@H](O)[C@H](Cc2ccccc2)NC(=O)O[C@H]2CCOC2)C2CCNCC2)cc1 [Compound 1011] | 1500 nM | – |
| COc1ccc(S(=O)(=O)N(C[C@@H](O)[C@H](Cc2ccccc2)NC(=O)O[C@H]2CCOC2)CN2CCCCC2)cc1 [Compound 1013] | 1500 nM | – |
| COc1ccc(S(=O)(=O)N(CCN2CCCCC2)C[C@@H](O)[C@H](Cc2ccccc2)NC(=O)O[C@H]2CCOC2)cc1 [Compound 1014] | 9300 nM | – |
| Nc1ccc(S(=O)(=O)N(CC2CCCC2)C[C@@H](O)[C@H](Cc2ccccc2)NC(=O)O[C@H]2CCOC2)cc1N [Compound 1015] | – | IC90 [1, 5]: < 100 nM; Ki (HIV-1 protease): 19 nM |
